For 98 compounds, cytotoxicity results are on record in ChEMBL document CHEMBL3507680, “University of Dundee, Gates Library screen for HepG2 cell viability”.

The data set is described as follows: Human HepG2 cell viability assay in 384 well format. Conditions: HepG2 cells, read-out: Inhibition. The arrangement: dose 125 nL, time 70.5 hour; cytotoxicity at 70.5 h: concentration not given beside the values. The format is toxicity, cell-based.
`CC(=O)c1cc(C(=O)N2CCC3(CC2)Nc2ccccc2NC3=O)cs1`: the cytotoxicity at 70.5 h is -7.09%. For `CO[C@H]1CN(C(=O)OC(C)(C)C)CC1NCc1cccn1C` (stereo partly drawn), the cytotoxicity at 70.5 h is -8.94%. Under `CC(C)c1nc2c(n1C)CCN(CC(=O)Nc1nncs1)C2` stands 6.98%. As for `CN(CC1COc2ccccc2O1)C(=O)NCCCn1ccnc1` (stereo not drawn), the cytotoxicity at 70.5 h came to 33.9%.

Turning to `CNc1cc(C2CN(C(=O)c3ccn(C)n3)CCO2)nc(C)n1` (stereo not drawn), the cytotoxicity at 70.5 h was found to be 26.5%. Turning to `Cc1c(NC(=O)CN2CCC(Oc3cnccn3)CC2)cnn1C`, the cytotoxicity at 70.5 h was -3.61%. On to `CC1(C)CC(N(Cc2cccnc2)Cc2cccc(F)c2)CC(C)(C)N1`, for which the cytotoxicity at 70.5 h was determined as 2.01%.

Consider `O=C(c1ccc(Cl)o1)N1CCCC(c2cc(C(F)(F)F)[nH]n2)C1` (stereo not drawn), for which the cytotoxicity at 70.5 h is -3.16%. Turning to `CN(C)C(=O)NCc1cc2n(n1)CCN(C[C@H]1[C@@H]3CNC[C@@H]31)C2`, the cytotoxicity at 70.5 h came to 15.7%. Consider `Cn1c(=O)oc2ccc(Nc3ncc(C#N)cc3Cl)cc21`, for which the cytotoxicity at 70.5 h was -2.37%. Take `CN1[C@@H](C(=O)NCC2CC2)C[C@@H]2CN(Cc3ccsc3)C[C@@H]21`: the cytotoxicity at 70.5 h is 11.3%. Regarding `CC1CN(C)c2ccccc2CN1C(=O)c1ccncc1` (stereo not drawn), the cytotoxicity at 70.5 h was 0.805%.

Consider `Clc1snnc1CN1CCCC1Cn1cncn1` (stereo not drawn), for which the cytotoxicity at 70.5 h amounted to 53.6%. In the case of `c1ccc(OCCN2CCCC(c3noc(C4CC4)n3)C2)cc1` (stereo not drawn) it was -0.448%; in that of `CCCC1COCCN1Cc1ccc(S(=O)(=O)NC)cc1` (stereo not drawn), 7.3%. Consider `Cc1nn(C)c(N2CCOCC2)c1CNC1CCN(C(C)(C)C)CC1`, for which the cytotoxicity at 70.5 h came to 1.66%. With `COC(=O)c1cccc(C(=O)N2CCN(c3ccc(OC)cc3)CC2)n1`, the cytotoxicity at 70.5 h was -7.54%. Take `CC1CCc2nn(CCNC(=O)c3ccco3)c(=O)cc2C1` (stereo not drawn): the cytotoxicity at 70.5 h was -5.13%.

As for `CCc1nc(CC)n(CC(=O)N(CC)CC)n1`, the cytotoxicity at 70.5 h was -8.83%. As to `CC(=O)N1CCC(C(=O)NC(C)c2cccc(OC(F)F)c2)CC1` (stereo not drawn), the cytotoxicity at 70.5 h stood at 1.57%. For `NC(=O)NC(=O)CCN1C(=O)CC(Cc2ccc(F)cc2)C1=O` (stereo not drawn), the cytotoxicity at 70.5 h is -13.2%. For `CCOCC(=O)N1C[C@@H]2COC[C@H](c3nc(C)no3)[C@@H]2C1`, the cytotoxicity at 70.5 h was -2.34%. Under `CCCS(=O)(=O)N1CCC2(CCC(=O)N(CCc3ccccc3)C2)CC1` stands -10.1%.

Consider `O=C(c1cccnc1O)N(Cc1cccs1)CC1CCCO1` (stereo not drawn), for which the cytotoxicity at 70.5 h is -11.9%. Under `N#Cc1ccc(OC2CCN(C(=O)c3ccc(Br)o3)CC2)nc1` stands 20.2%.

For the compound `CCOc1cc(CNCc2nc(C)cc(=O)[nH]2)c(Cl)cc1OC(C)C`, the cytotoxicity at 70.5 h is -3.61%.

As for `CCOCC(O)CN1CCN(C(=O)c2cccnc2OC)CC1` (stereo not drawn), the cytotoxicity at 70.5 h is -18%. Under `CC(=O)Nc1nc(C(=O)NCc2ccc(N3CCCC3)nc2)cs1` stands -7.65%.

Take `Cc1nnn2c1COCC(CNC(=O)c1ccc3[nH]ccc3c1)C2` (stereo not drawn): the cytotoxicity at 70.5 h is -9.06%. In the case of `CNC(=O)CN1CCC(NC(=O)C(C)Oc2ccccc2C#N)CC1` (stereo not drawn) it was -3.18%; in that of `CCC(CN1CCOCC1)n1cncc1-c1ccc2c(c1)CCN2CC` (stereo not drawn), 21%; in that of `COC[C@@]12CCO[C@@H]1CCN(Cc1sccc1C)C2`, -10.6%.

As to `CN(C)c1ncnc2c1CCN(c1cccc(F)c1)CC2`, the cytotoxicity at 70.5 h was -3.26%. In the case of `CCc1cnc(C)nc1N1CCC(Cc2cccc(C(=O)O)c2)C1` (stereo not drawn) it was -7.7%. On to `CCCn1nc(-c2nc(COc3ccccc3)no2)ccc1=O`, for which the cytotoxicity at 70.5 h is -7.31%. On to `Cc1cccc(C2(CNC(=O)C(C)S(C)(=O)=O)CCCC2)c1` (stereo not drawn), for which the cytotoxicity at 70.5 h is -3.73%. Under `CN1CC(c2ccccc2)CC2(CCN(Cc3ncc[nH]3)CC2)C1` (stereo not drawn) stands -9.18%; under `CC(C)N1CCN(C(=O)c2ccccc2NCc2cccnc2)CC1`, -5.19%; under `Cn1cnnc1S(=O)(=O)C1CCN(S(=O)(=O)c2c(Cl)cccc2Cl)CC1`, -8.23%. For the compound `CCCS(=O)(=O)CCN1CCOC(c2ccsc2)C1` (stereo not drawn), the cytotoxicity at 70.5 h was -2.47%. As to `Cc1ccccc1C(C(=O)NCc1nc(-c2ncccn2)no1)N(C)C` (stereo not drawn), the cytotoxicity at 70.5 h is -6.36%. In the case of `CNC(=O)[C@@H]1C[C@@H](NC(=O)c2cn(C)nc2C)CN1Cc1sccc1C` it was -2.42%; in that of `CCc1nc(C)ncc1C(=O)N1CCN(CC)c2ccccc21`, 8.71%. Take `Cc1ccc(NC(=O)c2ccc(=O)n(CC(=O)Nc3nccs3)n2)cc1`: the cytotoxicity at 70.5 h was found to be 23.1%. Take `CCC(O)CNC(=O)c1coc(COc2ccc3sc(C)nc3c2)n1` (stereo not drawn): the cytotoxicity at 70.5 h was found to be 12.2%.

Regarding `CN1C(=O)C2(CCN(c3nccc4occc34)CC2)c2ccccc21`, the cytotoxicity at 70.5 h was 9.71%. As for `Cc1cccc(CN2CCCC2c2cncc(Nc3nncs3)n2)c1` (stereo not drawn), the cytotoxicity at 70.5 h came out at 2.33%. Under `O=C1CCC2(CCCN(C(=O)Cc3ccccc3)C2)N1` (stereo not drawn) stands 5.57%; under `O=C(CC1CC1)N1CCC2(COCc3cnc(-c4ccccc4)nc32)C1` (stereo not drawn), -8.52%. In the case of `COC(=O)CCCNC(=O)c1cc(COc2cncc(Cl)c2)on1` it was 0.545%; in that of `CCc1nnsc1C(=O)N1CCOC(c2nc(C)n[nH]2)C1` (stereo not drawn), 1.73%. For `COc1ccnc(N2CCC3(CCCN(C(C)C)C3=O)C2)n1` (stereo not drawn), the cytotoxicity at 70.5 h is -1.71%.

`O=c1[nH]c(-c2cccnc2)nc2c1CCN(S(=O)(=O)N1CCCC1)C2`: the cytotoxicity at 70.5 h is -12%.

Turning to `CCc1nc(C2CCCN2Cc2noc(Cc3ccccc3)n2)no1` (stereo not drawn), the cytotoxicity at 70.5 h is -7.3%. In the case of `CCSCCOC(=O)CCCc1ccc2c(c1)CC(=O)N2` it was -12.3%. On to `COCCN1CC(C(=O)NCc2ccnc(-n3cccn3)c2)CC1=O` (stereo not drawn), for which the cytotoxicity at 70.5 h was -6.88%. As to `CN(Cc1cnn(C)c1)c1nccc(-c2cc(C(=O)O)ccn2)n1`, the cytotoxicity at 70.5 h was found to be 18.1%. For `CCN(CC)c1ccc(CNS(=O)(=O)C2CCOCC2)cc1F`, the cytotoxicity at 70.5 h was -10.6%. Under `CN1N=C(C(=O)N2CCN(c3ncccn3)CC2)CCC1=O` stands 1.03%; under `CN1CC2(CCN(C(=O)c3[nH]cnc3-c3ccccc3)C2)OC1=O` (stereo not drawn), -3.76%; under `COCCN(Cc1cccnc1)S(=O)(=O)c1cccc(F)c1F`, 5.02%.

Take `c1ccc(Oc2ccc(CNCC3CNc4ccnn4C3)cn2)cc1` (stereo not drawn): the cytotoxicity at 70.5 h was -9.82%. In the case of `Cc1cc(NCc2cc3n(n2)CCCN(C(=O)C2CCC2)C3)nc(N)n1` it was -1.07%. In the case of `COc1c(C2CCCN2CC(=O)Nc2ccncc2)c(C)nn1C` (stereo not drawn) it was 6.03%; in that of `C=C(C)COc1cccc(CNCCc2nc(N)cc(O)n2)c1`, -9.19%; in that of `COc1ccc(CN2CCN(Cc3nccn3C)C(C)C2)cc1F` (stereo not drawn), -9.42%.

Turning to `CCN(Cc1cccc(C)c1)Cc1nc2c(cnn2C)c(=O)[nH]1`, the cytotoxicity at 70.5 h was -2.57%.

On to `COCCCn1ccc(NC(=O)NCCCn2ccnc2)n1`, for which the cytotoxicity at 70.5 h was -18.9%. In the case of `O=C(O)c1cc(S(=O)(=O)Nc2cnn(C3CCOCC3)c2)ccc1F` it was -6.44%; in that of `CCN(CC(=O)NC(C)C)C(=O)c1csc(Cc2ccccc2)n1`, -9.03%.

For the compound `CCCS(=O)(=O)NCCc1ncc(CC)s1`, the cytotoxicity at 70.5 h was -0.431%. In the case of `Cc1cc(C)n(Cc2cccc(C(=O)NCCN3CCOCC3)c2)n1`, the cytotoxicity at 70.5 h is -6.51%. On to `Cc1ncc(CN(C)C2CCCN(CCc3ccccc3)C2)n1C` (stereo not drawn), for which the cytotoxicity at 70.5 h is -9.12%. In the case of `O=C(C[C@H]1[C@H]2CN(Cc3ccc(F)cc3)C[C@@H]12)N1CCCC1`, the cytotoxicity at 70.5 h was -3.22%. Regarding `N#Cc1cccc(S(=O)(=O)N2CCCCC2CCN2CCCC2)c1` (stereo not drawn), the cytotoxicity at 70.5 h was -3.74%. Under `C=C(C)CN(CC)C(=O)c1cc(Cl)ccc1NS(C)(=O)=O` stands -0.344%; under `Cc1nc(C)n(CC2CN(CCc3ccccn3)CCO2)n1` (stereo not drawn), -7.39%. Under `CN1CCO[C@@H]2CN(C(=O)NCc3ccccc3)CC[C@@H]2C1` stands 9.51%. In the case of `O=C1CCCN1CCCNCc1cc(O)c2cccc(Cl)c2n1` it was 21%.

With `CN1CCCc2c1nc1c(c2N)CCCC1`, the cytotoxicity at 70.5 h turned out to be 23%. In the case of `CN(CC(=O)NC(C)(C)C)Cc1nc(-c2ccccc2)c[nH]1`, the cytotoxicity at 70.5 h amounted to 39%. With `O=C(c1ccco1)N1C[C@H]2CCCN(Cc3ccncc3)[C@H]2C1`, the cytotoxicity at 70.5 h was -3.44%. Turning to `NCCn1cc(C(=O)NCc2ccccc2Cn2cccn2)nn1`, the cytotoxicity at 70.5 h is -6.05%.

On to `Cc1ccnc(Cn2cc(-c3cccc(C(C)N(C)C)c3)nn2)c1` (stereo not drawn), for which the cytotoxicity at 70.5 h was -6.95%. In the case of `O=C1CO[C@H]2CN(Cc3ccccc3Br)C[C@@H]2N1` it was 20.8%; in that of `Cn1nc(CN2CCCC2)c2c1CN(C(=O)c1ccncc1F)CC2`, -3.12%. In the case of `O=c1[nH]cccc1-c1nccc(C2(c3ccccc3Cl)CCNCC2)n1` it was 29.1%; in that of `Cc1nc(N2CCOCC2)nc2c1CCN(C(=O)NC1CCCC1)CC2`, 20.6%; in that of `c1cncc(COCC2CN(Cc3ccsc3)Cc3ccnn3C2)c1` (stereo not drawn), -4.42%. Under `c1nc2onc(C3CC3)c2cc1-c1nnc(C2CC2)o1` stands 1.7%. Regarding `CC(O)CN1CCC(CNCc2ccc(S(C)(=O)=O)cc2)CC1` (stereo not drawn), the cytotoxicity at 70.5 h is -3.17%. In the case of `Cc1cccc(C(=O)N2CCC(Cc3cnc4[nH]ccc4c3)CC2)n1` it was -7.84%; in that of `CN(C)CCNCC1(O)CCCN(Cc2cccc(F)c2F)C1=O` (stereo not drawn), 16.1%; in that of `COc1c(CNCc2ccc(CS(C)(=O)=O)cc2)c(C)nn1C`, 26.4%.

For `Cc1cnc(C)c(N2CCC(C(=O)O)(n3ccc(C(C)(C)C)n3)CC2)n1`, the cytotoxicity at 70.5 h amounted to 30.8%. With `O=C(c1ccccc1F)N1C[C@@H]2COC[C@]2(COCc2cccnc2)C1`, the cytotoxicity at 70.5 h is -1.45%. Consider `O=C1CC2(CCCC2)CC(=O)N1Cc1nccs1`, for which the cytotoxicity at 70.5 h was -1.44%. In the case of `O=C(c1ccncc1)N1CCC(Cc2cnc3[nH]ccc3c2)CC1` it was -5.49%.
